pIC50: −log10 of the molar value. Values after ≈ are worked out from the molar mass of the structure shown.
Legend:
Mus musculus [1] = organism: Mus musculus; test: Antidepressant activity in mouse assessed as […] by tail suspension test; assay type: functional
Mus musculus [2] = organism: Mus musculus; test: Antidepressant activity in mouse assessed as […] by forced swimming test; assay type: functional
Mus musculus [3] = organism: Mus musculus; test: Antianxiety activity in mouse assessed as increase in number of entries in different arms; assay type: functional
Ca9-22 = test: Cytotoxicity against human Ca9-22 cells assessed as reduction in cell viability incubated for 48 hrs by MTT assay; assay type: functional
HSC-2 = test: Cytotoxicity against human HSC-2 cells assessed as reduction in cell viability incubated for 48 hrs by MTT assay; assay type: functional
HSC-3 = test: Cytotoxicity against human HSC-3 cells assessed as reduction in cell viability incubated for 48 hrs by MTT assay; assay type: functional
[4] = Cytotoxicity against human HGF cells assessed as reduction in cell viability incubated for 48 hrs by MTT assay; assay type: functional
[5] = Cytotoxicity against human HPLF cells assessed as reduction in cell viability incubated for 48 hrs by MTT assay; assay type: functional
[6] = Cytotoxicity against human HPC cells assessed as reduction in cell viability incubated for 48 hrs by MTT assay; assay type: functional
MCF7 = test: cells; settings: Homo sapiens
HepG2 [7] = test: cells; settings: Homo sapiens
HepG2 [8] = test: Cytotoxicity against human HepG2 cells; assay type: functional, cell-based
Huh-7 = test: Cytotoxicity against human Huh-7 cells; assay type: functional, cell-based
RAW264.7 [9] = test: Antiinflammatory activity in LPS-induced mouse RAW264.7 cells assessed as inhibition of LPS induced NO production; assay type: functional, cell-based
RAW264.7 [10] = test: Cytotoxicity against mouse RAW264.7 cells relative to control; assay type: functional
Aspergillus niger [11] = test: Antifungal activity against Aspergillus niger by agar dilution method; assay type: functional
HepG2 [12] = test: Cytotoxicity against human HepG2 cells assessed as growth inhibition; assay type: functional, cell-based
[13] = test system: Mycolicibacterium smegmatis; test: Antimycobacterial activity against Mycobacterium smegmatis; assay type: functional
Staphylococcus aureus [14] = test: microbe, parasite or virus in culture
Candida albicans [15] = test: microbe, parasite or virus in culture
Candida albicans [16] = test: Antifungal activity against Candida albicans; assay type: functional
Escherichia coli [17] = test: microbe, parasite or virus in culture
Pseudomonas aeruginosa [18] = test: microbe, parasite or virus in culture
Pseudomonas aeruginosa [19] = test: Potency index, ratio of ampicillin MIC to compound MIC for Pseudomonas aeruginosa by agar dilution method; assay type: functional
Candida albicans [20] = test: Antifungal activity against Candida albicans by agar dilution method; assay type: functional
HepG2 [21] = test: Cytotoxicity against human HepG2 cells assessed as reduction in cell viability; assay type: functional, cell-based
HeLa = test: Cytotoxicity against human HeLa cells assessed as reduction in cell viability; assay type: functional, cell-based
Escherichia coli [22] = test: Antibacterial activity against Escherichia coli assessed as inhibition of bacterial growth; assay type: functional
Pseudomonas aeruginosa [23] = test: Antibacterial activity against Pseudomonas aeruginosa assessed as inhibition of bacterial growth; assay type: functional
Staphylococcus aureus [24] = test: microbe, parasite or virus in culture; remark: listed apart in the source
Bacillus subtilis [25] = test: microbe, parasite or virus in culture
Plasmodium berghei = test: Antimalarial activity against Plasmodium berghei infected in mouse assessed as suppression percentage at 48.46 umol/kg administered daily relative to control; assay type: functional; settings: dose 48.46 µmol/kg
Escherichia coli [26] = test: Antibacterial activity against Escherichia coli by agar dilution method; assay type: functional
Pseudomonas aeruginosa [27] = test: Antibacterial activity against Pseudomonas aeruginosa by agar dilution method; assay type: functional
Staphylococcus aureus [28] = test: Antibacterial activity against Staphylococcus aureus by agar dilution method; assay type: functional
Bacillus subtilis [29] = test: Antibacterial activity against Bacillus subtilis by agar dilution method; assay type: functional
Escherichia coli [30] = test: Potency index, ratio of ampicillin MIC to compound MIC for Escherichia coli by agar dilution method; assay type: functional
Aspergillus clavatus = test: Antifungal activity against Aspergillus clavatus; assay type: functional
Aspergillus niger [31] = test: Antifungal activity against Aspergillus niger; assay type: functional
Streptococcus pyogenes = test: Antibacterial activity against Streptococcus pyogenes assessed as inhibition of microbial growth; assay type: functional
Staphylococcus aureus [32] = test: Antibacterial activity against Staphylococcus aureus assessed as inhibition of microbial growth; assay type: functional
A549 = test: Cytotoxicity against human A549 cells assessed as reduction in cell viability; assay type: functional, cell-based
Rattus norvegicus = test: Antiinflammatory activity in carrageenan induced rat paw edema model relative to indomethacin; assay type: functional
DU-145 = test: Cytotoxicity against human DU-145 cells by SRB assay; assay type: functional
Tubulin (Homo sapiens) = Tubulin (Homo sapiens) (UniProt P68371+Q9H4B7+P0DPH7+P68366+Q13509+Q71U36+P04350+Q3ZCM7+P07437+P68363+Q9BQE3+Q6PEY2+Q13885+Q9BVA1+Q9BUF5); test: Inhibition of tubulin polymerization (unknown origin) by fluorescence assay relative to control; assay type: protein-complex assay; settings: concentration not given here

## Oc1ccc(C2=NNC(c3ccc(Cl)cc3)C2)cc1 (centres undefined)
Mus musculus [1]
  Time: 21.17 s
Mus musculus [2]
  Time: 21.17 s
Mus musculus [3]
  Activity: 17.67

## O=c1[nH]cc(F)c(=O)[nH]1 [FLUOROURACIL]
Ca9-22
  CC50: 13 µM
HSC-2
  CC50: 13 µM
HSC-3
  CC50: 13 µM
[4]
  CC50: 13 µM
[5]
  CC50: 13 µM
[6]
  CC50: 13 µM
MCF7
  IC50: 30 µg/mL (≈ 231 µM)
HepG2 [7]
  IC50: 33.5 µg/mL (≈ 258 µM)

## N#Cc1c(-c2ccc(F)cc2)nc(N2N=C(c3c4ccccc4cc4ccccc34)CC2c2ccc(F)cc2)[nH]c1=O (centres undefined)
HepG2 [8]
  IC50: 5.34 µg/mL (≈ 9.65 µM)
Huh-7
  IC50: 6.13 µg/mL (≈ 11.1 µM)

## C[C@]12CC[C@H]3[C@@H](CC=C4C[C@@H](O)CC[C@@]43C)[C@@H]1CC[C@@H]2C1=NN(C(N)=S)C(c2cccc(F)c2)C1 (some centres undefined)
RAW264.7 [9]
  pIC50: 5.99
RAW264.7 [10]
  Activity: >90%

## Cc1ccc2c(c1)cc(C1CC(c3cc(Br)ccc3O)=NN1)c1nnnn12 (centres undefined)
Aspergillus niger [11]
  MIC: 25 µg/mL (≈ 59.1 µM)

## Clc1ccc(-c2csc(N3N=C(c4cccs4)CC3c3ccc(Cl)cc3Cl)n2)cc1 (centres undefined)
HepG2 [12]
  pIC50: 5.53

## COc1ccc(-c2nn(-c3ccc(Cl)cc3)cc2C2CC(c3ccc(-c4ccccc4)cc3)=NN2)cc1 (centres undefined)
[13]
  MIC: 15.6 µg/mL (≈ 30.9 µM)
Staphylococcus aureus [14]
  MIC: 15.6 µg/mL (≈ 30.9 µM)
Candida albicans [15]
  MIC: 15.6 µg/mL (≈ 30.9 µM)

## O=C(c1ccncc1)N1N=C(c2ccc(F)cc2)CC1c1cc2ccccc2nc1Cl (centres undefined)
Candida albicans [16]
  MIC: 12.5 µg/mL (≈ 29 µM)
Escherichia coli [17]
  MIC: 12.5 µg/mL (≈ 29 µM)
Pseudomonas aeruginosa [18]
  MIC: 12.5 µg/mL (≈ 29 µM)

## Cc1cccc2cc(C3CC(c4cc(Br)ccc4O)=NN3)c3nnnn3c12 (centres undefined)
Pseudomonas aeruginosa [19]
  Ratio: 2
Candida albicans [20]
  MIC: 25 µg/mL (≈ 59.1 µM)

## COc1cc(C2CC(c3ccc(F)cc3)=NN2C(N)=S)cc(OC)c1OC (centres undefined)
HepG2 [21]
  pIC50: 5.17
HeLa
  pIC50: 5.12

## CC1(C)S[C@@H]2[C@H](NC(=O)Cc3ccccc3)C(=O)N2[C@H]1C(=O)O [PENICILLIN G]
Escherichia coli [22]
  MIC: 3.12 µg/mL (≈ 9.35 µM)
Pseudomonas aeruginosa [23]
  MIC: 3.12 µg/mL (≈ 9.35 µM)
Staphylococcus aureus [24]
  MIC: 0.39 µg/mL (≈ 1.17 µM)
Bacillus subtilis [25]
  MIC: 0.39 µg/mL (≈ 1.17 µM)

## Cc1ccc(-c2nn(-c3ccccc3)cc2C2CC(c3cccs3)=NN2)cc1 (centres undefined)
Plasmodium berghei
  Activity: 63.4%

## Oc1ccc(Br)cc1C1=NNC(c2cc3ccccc3n3nnnc23)C1 (centres undefined)
Escherichia coli [26]
  MIC: 50 µg/mL (≈ 122 µM)
Pseudomonas aeruginosa [27]
  MIC: 50 µg/mL (≈ 122 µM)
Staphylococcus aureus [28]
  MIC: 25 µg/mL (≈ 61.1 µM)
Bacillus subtilis [29]
  MIC: 25 µg/mL (≈ 61.1 µM)
Escherichia coli [30]
  Ratio: 2
Pseudomonas aeruginosa [19]
  Ratio: 2

## COc1ccc(C2CC(c3ccc(O)cc3)=NN2)cc1OC (centres undefined)
Mus musculus [1]
  Time: 21.17 s
Mus musculus [2]
  Time: 21.17 s
Mus musculus [3]
  Activity: 15.5

## O=C1N=C(N2N=C(c3cccs3)CC2c2cc(Cl)ccc2Cl)S/C1=N/Nc1ccc(Cl)cc1 (centres undefined)
HepG2 [12]
  pIC50: 5.45

## O=C(c1ccncc1)N1N=C(c2ccc([N+](=O)[O-])cc2)CC1c1cc2ccccc2nc1Cl (centres undefined)
Aspergillus clavatus
  MIC: 12.5 µg/mL (≈ 27.3 µM)
Candida albicans [16]
  MIC: 12.5 µg/mL (≈ 27.3 µM)
Aspergillus niger [31]
  MIC: 12.5 µg/mL (≈ 27.3 µM)
Streptococcus pyogenes
  MIC: 12.5 µg/mL
Staphylococcus aureus [32]
  MIC: 12.5 µg/mL

## COc1cc(C2CC(c3ccc(Br)cc3)=NN2C(N)=S)cc(Br)c1O (centres undefined)
A549
  pIC50: 4.29

## Fc1ccc(-c2csc(N3N=C(c4cccs4)CC3c3ccc(Cl)cc3Cl)n2)cc1 (centres undefined)
HepG2 [12]
  pIC50: 5.77

## COc1cc(C2CC(c3ccc(Cl)cc3)=NN2C(N)=S)cc(Br)c1O (centres undefined)
A549
  pIC50: 4.36

## CCC(=O)N1N=C(c2ccccc2)CC1c1cn(-c2ccccc2)nc1-c1ccc(C)cc1 (centres undefined)
Plasmodium berghei
  Activity: 45.52%

## Cc1ccc(/C=C/C2=NN(C(N)=O)C(c3ccc(C)s3)C2)s1 (centres undefined)
Rattus norvegicus
  Activity: 103%

## COc1ccc(/C=C/C(=O)c2cc(OC)c(OC)c(OC)c2)cc1OCc1cn(Cc2ccc(F)cc2)nn1
DU-145
  GI50: 1.3 µM
Tubulin (Homo sapiens)
  inhibition: 51%

— ChEMBL document CHEMBL5260848, “Recent advancements in the development of bioactive pyrazoline derivatives” (Eur J Med Chem, 2020)
